Measurements published in ChEMBL document CHEMBL1126876, “Synthesis of paraxanthine analogs (1,7-disubstituted xanthines) and other xanthines unsubstituted at the 3-position: structure-activity relationships at adenosine receptors” (J Med Chem, 1993).

What was measured:
[1] = target: T1, Adenosine receptor A1 (Rattus norvegicus, UniProt P25099); experiment: Binding affinity at Adenosine A1 receptor in rat brain cortical membrane using [3H]N6-R-phenylisopropyladenosine (R-PIA) as radioligand; type: cell membranes
T1 sequence (P25099 whole entry): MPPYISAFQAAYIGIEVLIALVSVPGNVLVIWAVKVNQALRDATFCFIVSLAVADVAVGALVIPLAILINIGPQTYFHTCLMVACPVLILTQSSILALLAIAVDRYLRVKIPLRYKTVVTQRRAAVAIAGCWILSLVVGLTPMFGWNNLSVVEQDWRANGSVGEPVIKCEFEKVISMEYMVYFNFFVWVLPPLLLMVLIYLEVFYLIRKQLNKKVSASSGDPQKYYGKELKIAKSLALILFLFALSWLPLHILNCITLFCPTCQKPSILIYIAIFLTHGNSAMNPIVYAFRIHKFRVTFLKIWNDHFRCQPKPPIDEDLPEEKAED

[2] = target: Adenosine A2 receptor (Rattus norvegicus, UniProt P29276+P30543); experiment: Binding affinity against Adenosine A2 receptor in rat striatal membranes using [3H]5'-(N-ethylcarboxamido)-adenosine (NECA) as the ligand; type: cell membranes, Striatum, Membrane
[3] = target: T2, Adenosine A2 receptor (Rattus norvegicus) (UniProt P29276+P30543); experiment: Binding affinity at Adenosine A2 receptor in rat striatal membrane using [3H]- 5'-N-ethylcarboxamidoadenosine (NECA) at 1 uM; type: cell membranes; details: Striatum
[4] = target: T2, Adenosine A2 receptor (Rattus norvegicus); details: Striatum, Membrane, at 250 µM
Description: Binding affinity at Adenosine A2 receptor in rat striatal membrane using [3H]- 5'-N-ethylcarboxamidoadenosine (NECA) at 250 uM

[5] = target: T1, Adenosine receptor A1; experiment: Binding affinity at A1 adenosine receptor in rat brain cortical membrane using [3H]- N6-R-phenylisopropyladenosine (R-PIA); type: cell membranes
[6] = target: T3, Adenosine receptor A1 (Rattus norvegicus) (UniProt P25099); experiment: Binding affinity at Adenosine A1 receptor in rat brain cortical membrane using [3H]- N6-R-phenylisopropyladenosine (R-PIA) at 100 uM; type: cell membranes
T3 sequence (whole entry): T1 sequence (P25099 whole entry)

[7] = target: T2, Adenosine A2 receptor (Rattus norvegicus); experiment: Binding affinity at Adenosine A2 receptor in rat striatal membrane using [3H]- 5'-N-ethylcarboxamidoadenosine (NECA) at 200 uM; type: cell membranes; details: Striatum
[8] = target: T3, Adenosine receptor A1 (Rattus norvegicus); experiment: Binding affinity at A1 adenosine receptor in rat brain cortical membrane using [3H]- N6-R-phenylisopropyladenosine (R-PIA) at 250 uM; type: cell membranes
[9] = target: T2, Adenosine A2 receptor (Rattus norvegicus); experiment: Binding affinity at Adenosine A2 receptor in rat striatal membrane using [3H]- 5'-N-ethylcarboxamidoadenosine (NECA) at 200 uM; details: Striatum
[10] = target: T3, Adenosine receptor A1 (Rattus norvegicus); experiment: Binding affinity at Adenosine A1 receptor in rat brain cortical membrane using [3H]- N6-R-phenylisopropyladenosine (R-PIA) at 200 uM
[11] = target: T3, Adenosine receptor A1 (Rattus norvegicus); experiment: Binding affinity at Adenosine A1 receptor in rat brain cortical membrane using [3H]- N6-R-phenylisopropyladenosine (R-PIA); type: cell membranes; details: concentration not given here
[12] = target: T3, Adenosine receptor A1 (Rattus norvegicus); details: Brain, at 250 µM
[13] = target: T2, Adenosine A2 receptor (Rattus norvegicus); experiment: Binding affinity at Adenosine A2 receptor in rat striatal membrane using [3H]- 5'-N-ethylcarboxamidoadenosine (NECA) at 20 uM; type: cell membranes; details: Striatum
[14] = target: T3, Adenosine receptor A1 (Rattus norvegicus); experiment: Binding affinity at Adenosine A1 receptor in rat brain cortical membrane using [3H]- N6-R-phenylisopropyladenosine (R-PIA) at 250 uM; type: cell membranes

Row | SMILES | Ki [1] | Ki [2] | also measured
1 | C#CCn1c(=O)[nH]c2ncn(C)c2c1=O | 22 µM | 16 µM | 
2 | O=c1[nH]c2[nH]cnc2c(=O)n1C1CCCC1 | 11 µM | 13 µM | 
3 | O=c1[nH]c2[nH]c(-c3ccccc3)nc2c(=O)n1Cc1cccc(Cl)c1 |  |  | inhibition [3]: 32%
4 | Cn1c(=O)[nH]c(=O)c2[nH]c(-c3ccccc3)nc21 | 3.4 µM |  | inhibition [4]: 17%
5 | O=c1[nH]c2[nH]cnc2c(=O)n1Cc1cccc(Cl)c1 | 4.9 µM | 26 µM | 
6 | O=c1[nH]c(=O)c2[nH]c(-c3ccccc3)nc2[nH]1 |  | 21 µM | Ki [5]: 2.5 µM
7 | CCCn1c(=O)[nH]c(=O)c2[nH]c(-c3ccccc3)nc21 |  | 61 µM | 
8 | Cn1c(=O)[nH]c(=O)c2[nH]cnc21 [3-METHYLXANTHINE] |  | 59 µM | inhibition [6]: 24%
9 | CCCn1c(=O)[nH]c2[nH]c(C3CCCC3)nc2c1=O | 0.014 µM | 0.58 µM | 
10 | CCCn1c(=O)[nH]c2[nH]cnc2c1=O | 13 µM | 33 µM | 
11 | C#CCn1c(=O)[nH]c2[nH]cnc2c1=O | 20 µM | 26 µM | 
12 | CCn1c(=O)[nH]c2[nH]c(C3CCCCC3)nc2c1=O |  | 2.3 µM | 
13 | CCCn1c(=O)[nH]c(=O)c2[nH]c(C3CCCCC3)nc21 |  | 24 µM | 
14 | CC(C)n1c(=O)n(C)c(=O)c2[nH]cnc21 |  | 16 µM | 
15 | CCCn1cnc2[nH]c(=O)[nH]c(=O)c21 | 18 µM |  | inhibition [7]: 40%
16 | CCCn1c(=O)[nH]c2nc(-c3ccc(S(=O)(=O)O)cc3)[nH]c2c1=O | 2.2 µM | 24 µM | 
17 | C=CCn1cnc2c1c(=O)[nH]c(=O)n2CC=C | 36 µM | 36 µM | 
18 | C#CCn1c(=O)[nH]c2[nH]c(-c3ccccc3)nc2c1=O | 0.21 µM | 0.73 µM | 
19 | CCn1c(=O)[nH]c2[nH]c(-c3ccccc3)nc2c1=O | 0.15 µM | 1.8 µM | 
20 | CCCn1c(=O)c2nc[nH]c2n(C)c1=O | 5.7 µM | 37 µM | 
21 | CC(C)CCn1c(=O)c2nc[nH]c2n(CC(C)C)c1=O |  | 11 µM | 
22 | O=c1[nH]c2nc(-c3ccccc3)[nH]c2c(=O)n1CCc1ccccc1 | 0.19 µM |  | 
23 | C#CCn1c(=O)[nH]c2[nH]c(C3CCCCC3)nc2c1=O | 0.17 µM | 1.7 µM | 
24 | C#CCn1c(=O)c2[nH]cnc2n(C)c1=O | 0.82 µM | 4.8 µM | 
25 | CCCn1c(=O)n(C)c(=O)c2[nH]cnc21 | 6.3 µM | 19 µM | 
26 | C=CCn1c(=O)c2[nH]c(-c3ccccc3)nc2n(C)c1=O | 0.1 µM | 2.1 µM | 
27 | CCCn1c(=O)[nH]c2[nH]c(-c3ccccc3)nc2c1=O |  | 1.9 µM | 

Row | SMILES | Ki [1] | Ki [2] | also measured
28 | CC(C)n1c(=O)[nH]c(=O)c2[nH]cnc21 |  | 53 µM | inhibition [6]: 34%
29 | CN1CN(C)c2c(O)nc(O)nc21 |  |  | inhibition [8]: 5%; inhibition [9]: 6%
30 | Cn1c(=O)[nH]c2[nH]c(-c3ccccc3)nc2c1=O | 0.26 µM | 2.2 µM | 
31 | Cn1c(=O)[nH]c2c(ncn2C)c1=O |  |  | inhibition [7]: 14%; inhibition [10]: 11%
32 | Cn1c(=O)[nH]c(=O)c2[nH]c(-c3ccc(S(=O)(=O)O)cc3)nc21 |  |  | inhibition [11]: 5%; inhibition [4]: 16%
33 | O=c1[nH]c2nc(-c3ccccc3)[nH]c2c(=O)n1Cc1cccc(Cl)c1 |  |  | Ki [5]: 0.068 µM
34 | CCCCn1cnc2[nH]c(=O)[nH]c(=O)c21 | 27 µM | 66 µM | 
35 | Cn1cnc2c(=O)[nH]c(=O)n(C)c21 |  |  | inhibition [7]: 11%; inhibition [12]: 42%
36 | C#CCn1cnc2[nH]c(=O)n(C)c(=O)c21 | 9.9 µM | 14 µM | 
37 | C#CCn1c(=O)c2c(nc(-c3ccccc3)n2C)n(C)c1=O | 6.1 µM | 6.4 µM | 
38 | O=c1[nH]c2[nH]cnc2c(=O)n1Cc1ccccc1 | 2.8 µM | 22 µM | 
39 | CC(=O)Cn1c(=O)[nH]c2[nH]c(C3CCCC3)nc2c1=O | 2.5 µM | 9.7 µM | 
40 | Cn1c(=O)[nH]c2[nH]cnc2c1=O [1-METHYLXANTHINE] | 36 µM | 47 µM | 
41 | CCCCn1c(=O)[nH]c2[nH]cnc2c1=O |  | 61 µM | 
42 | CCCn1cnc2c(=O)[nH]c(=O)[nH]c21 |  |  | inhibition [8]: 42%; inhibition [4]: 15%
43 | O=c1[nH]c2[nH]cnc2c(=O)n1CCc1ccccc1 |  |  | inhibition [13]: 0%
44 | CCn1c(=O)c2nc[nH]c2n(C)c1=O |  | 23 µM | 
45 | CC(C)Cn1c(=O)n(C)c(=O)c2nc[nH]c21 [ISOBUTYLMETHYLXANTHINE] |  | 16 µM | 
46 | CC(C)Cn1c(=O)c2nc[nH]c2n(CC(C)C)c1=O | 4 µM |  | 
47 | CCn1c(=O)c2nc[nH]c2n(CC)c1=O | 3.7 µM | 31 µM | 
48 | O=c1[nH]c2nc[nH]c2c(=O)n1CCc1ccccc1 | 12 µM |  | 
49 | CCCn1c(=O)[nH]c2ncn(C)c2c1=O | 21 µM | 29 µM | 
50 | C=CCn1c(=O)[nH]c2[nH]cnc2c1=O | 9.2 µM | 10 µM | 
51 | CCCn1c(=O)[nH]c(=O)c2[nH]c(-c3ccc(S(=O)(=O)O)cc3)nc21 |  |  | inhibition [14]: 40%; inhibition [4]: 44%
52 | Cn1cnc2[nH]c(=O)[nH]c(=O)c21 [7-METHYLXANTHINE] | 33 µM | 59 µM | 
53 | Cn1c(=O)[nH]c2ncn(C)c2c1=O [PARAXANTHINE] | 21 µM | 32 µM | 
54 | O=c1[nH]c2[nH]c(-c3ccccc3)nc2c(=O)n1CCc1ccccc1 |  |  | inhibition [3]: 0%
